# From patent US20200179392A1, “Idelalisib for Treating Proliferative Vitreoretinopathy and Abnormal Intraocular Neovascularization” (priority 2016, published 2020)
# What was measured:
# RPEM cells = experiment: Cell proliferation assay, RPEM cells with vitreous; format: cell-based, human; conditions: idelalisib 5 μM, 48 hours
# Method: 3A. RPEM cells were seeded into a 24-well plate at a density of 3×10^4 cells/well. After 8 hours the cells had attached, the medium was changed to either 0.5 ml DMEM (−) or RV supplemented with idelalisib (5 μM) or its vehicle. After treated for 48 hours, the cells were counted with a hemocytometer under a light microscope. RPEM cells were seeded into wells of a 24-well plate at a density of 3×10^4 cells/well in DMEM/F12 with 10% FBS. Following attachment, the cells were treated with DMEM/F12 or RV (1:2 dilution in DMEM/F12) with or without idelalisib (5 μM). On day 3, the cells were trypsin detached from the plates and counted in a hemocytometer. Each experimental condition was assayed in duplicate, and at least three independent experiments were performed^24, 44.
# HRECs [1] = experiment: VEGF-induced cell proliferation assay in HRECs; format: cell-based, human; conditions: VEGF 20 ng/ml, idelalisib 5 μM, 48 hours
# Method: In a cell proliferation assay, HRECs cells were seeded into 24-well plates at a density of 30,000 cells/well in an endothelial growth medium kit. After attaching the plates, the cells were starved for growth factors for 7 hours, and then treated with VEGF (20 ng/ml) or VEGF plus idelalisib (5 μM). After 48 hours, the cells were trypsin detached and then counted in a hemocytometer under a light microscope as shown in FIG. 10A from three independent experiments^50, 61.
# activation of Akt = experiment: VEGF-induced activation of Akt; format: cell-based
# [2] = tested on: PVR induced by RPEM cells; experiment: Experimental PVR in rabbits; format: in vivo, rabbit
# Method: PVR was induced in the right eyes of two to three-month-old Dutch Belted pigmented rabbits. Briefly, one week after gas vitrectomy, rabbits were intravitreally injected with platelet-rich plasma (PRP, 0.1 ml) and RPEM cells (300,000 cells) supplemented with either idelalisib (10 μM) or its vehicle (0.1% DMSO). Subsequently, the rabbits were examined at the indicated times and PVR stage was evaluated using a double blind approach with an indirect ophthalmoscope through a 30D lens, and then the PVR status for each rabbit was plotted (4A). The […] values are indicated at the top of the figure after a Mann-Whitney analysis. Representative rabbits on day 28 were examined by eletroretinography (ERG) (4B), optical coherence tomography (OCT) (4C) and histological analysis by hematoxylin & eosin stain (4D). The numbers in C and D (0, 2, 3, and 5) denote PVR stages in the examined rabbits. Single arrow points to the retina and double arrows point to cellular fibrotic membranes (4C). Arrowhead and double arrows indicate cellular membranes (4D).
# As previously described^1, 55, PVR was induced in right eyes of two-three months old Dutch Belted rabbits purchased from Covance (Denver, Pa.). Briefly, a gas vitrectomy was performed by injecting 0.1 ml of perfluoropropane (C3F8) (Alcon, Fort Worth, Tex.) into the vitreous cavity 4 mm posterior to the corneal limbus. […]
# HRECs [3] = experiment: VEGF-induced tube formation assay in HRECs; format: cell-based, human; conditions: idelalisib 5 μM
# Method: A tube formation assay was performed as previously described^63. A collagen gel mixture was added to a 96-well plate (70 μl/well), which was then incubated for about 60 minutes at 37° C. to let the collagen gel polymerize. After polymerization, 4.0×10^4 HRECs were seeded in each well with their cultured medium maintained at a 37° C. incubator. This day was considered day 1. On day 2, the medium was removed and 150 μl of the gel mixture was added to each well supplemented with VEGF, or VEGF plus idelalisib (5 μM). On days 3, three different fields per well were randomly chosen and photographed using the EVOS FL Auto microscope. The results in FIG. 10B are representative of three independent experiments^61, 64, 65. Each bar graph indicates mean±standard deviation of three independent experiments. “*” denotes significant difference between the two compared groups. P<0.05 using an unpaired t-test.
# HRECs [4] = experiment: VEGF-induced wound healing (migration) assay in HRECs; format: cell-based, human; conditions: VEGF 20 ng/ml, idelalisib 5 μM, 18 hours
# Method: A wound healing assay was performed as previously described^62 with minor modifications. Once cells reached 90% confluence in 48-well plates, they were starved for growth factors for 7 hours. A wound was created by scraping the cell monolayer with a sterile pipette tip (200 μl). The cells were washed twice to remove detached cells and then treated with VEGF (20 ng/ml) or VEGF plus idelalisib (5 μM). The wound was photographed at 18 hours post wounding with an EVOS FL Auto microscope (Thermo Scientific) as shown in 8B from three independent experiments^61.
structure (smiles),measurement,setting,value
CC[C@H](Nc1ncnc2[nH]cnc12)c1nc2cccc(F)c2c(=O)n1-c1ccccc1 [idelalisib],effect on vitreous-induced proliferation of RPEM cells,RPEM cells,prevented
same,effect on VEGF-stimulated cell proliferation of HRECs,HRECs [1],completely blocked
same,effect on VEGF-induced activation of Akt,activation of Akt,able to block
same,rabbits developing to PVR stage 3,[2]; idelalisib 10 μM intravitreal with PRP and RPEM cells,one of nine
same,effect on pathogenesis of PVR,"[2]; idelalisib 10 μM intravitreal, days 7, 14, 21 and 28, Mann-Whitney",significantly suppressed
same,effect on VEGF-stimulated tube formation of HRECs,HRECs [3],completely blocked
same,effect on VEGF-stimulated migration of HRECs,HRECs [4],completely blocked
